Data as given in patent US20250375458A1, “COMPOSITIONS AND METHODS TO COMBAT MULTIDRUG-RESISTANT AND […]-CELL-MEDIATED, O[…] INFECTIOUS DISEASES” (Theralase Technologies, Inc., priority 2024, published 2025).

Assays:
[1] = tested on: human Herpes Simplex 1 (HSV-1) virus; assay: HSV-1 virus yield in A549 host cells by plaque forming assay, with Bliss synergy score; type: cell-based; details: for HSV-1 yield suppression, single agent: A549 host cells, MOI 0.3, three days, 50 nM RUVIDAR or RUTHERRIN, 1 μM Acyclovir, 0.2% DMSO
Protocol: A549 human lung cancer cells are used as a host for virus growth, treatment, and later survival quantification. A549 cells are plated overnight, then incubated for 4 hours with or without 50 nM RUVIDAR or RUTHERRIN, with or without 1 μM Acyclovir or 0.2% DMSO (concentration non-toxic for the host cells). After the initial incubation of the host cells with the compounds, the cells are infected with the human Herpes Simplex 1 (HSV-1) virus at the multiplicity of infection (MOI)=0.3 and further incubated for three days (the mentioned compounds are still present in the culture media over the full course of incubation). After that, supernatant is harvested, centrifuged to remove debris, and the yield of infectious virus is determined by plaque forming assay (PFA) using supernatant for the host cells infection. The formed plaques are counted, and virus titer is calculated as Plaque Forming Units/mL=(Plaques number*Dilution)/Volume of Virus Inoculum. Titers normalized for control titer (untreated HSV-1 and host cells) produce relative virus yield (which is equivalent to inhibition rate).
The data are presented as virus yield normalized to Control. To estimate synergistic effect of two combined compounds, synergy Bliss score was calculated, as the difference between the actual inhibiting effect of the combination and the predicted inhibiting effect under “no synergy” assumption (Bliss score): Synergy score=Inhibition_RateCompound1 & Compound2−(Inhibition_RateCompound1+Inhibition_RateCompound2−Inhibition_RateCompound1* Inhibition_RateCompound2).

PD-L1 = PD-L1 expression by flow cytometry in T24 cells; type: cell-based, human; details: 3 μM for 2 days, MFI normalized to untreated cells
Protocol: (§1) In the tests whose results are shown in FIGS. 8A and 8B, T24 human bladder cancer cells or U87 human glioma cells were treated with 3 μM of RUVIDAR or RUTHERRIN for 2 days, and cells were collected and stained with fluorescent-labelled antibodies to CD47 and PD-L1 and analyzed by flow cytometry. MFI was normalized to control untreated cells and expressed as percentage of change.

CD47 [2] = assay: CD47 expression by flow cytometry in T24 cells; type: cell-based, human; details: 3 μM for 2 days, MFI normalized to untreated cells
Protocol: as §1

U87 human glioma cells = assay: Hoechst 33342 dye accumulation by flow cytometry (MFI); type: cell-based; details: 3 μM 4 hours, then Hoechst 33342 1 hour
Protocol: (§2) Hoechst 33342 is a nuclear dye commonly used to quantify drug efflux dynamics and drug accumulation in cells. […] Cells were then collected, and the MFI was determined by flow cytometry.

[3] = tested on: A549 human Non-Small Cell Lung Cancer cells; assay: as above; type: cell-based; details: 3 μM 4 hours, then Hoechst 33342 1 hour
Protocol: as §2

[4] = tested on: U87 human glioma cancer cells; assay: Presto Blue cell survival, RUVIDAR with or without N-acetylcysteine; type: cell-based; details: overnight
Protocol: U87 human glioma cancer cells were plated overnight, then treated with different doses of RUVIDAR in the presence or absence of N-acetylcysteine, a known ROS scavenger to quench the increase in ROS production. Cells were incubated overnight, and cell survival was analyzed using Presto Blue assay.

CD47 [5] = assay: CD47 expression in A549 cells, RUVIDAR or RUTHERRIN with or without ionizing radiation; type: cell-based, human; details: 3 μM
Protocol: In the tests whose results are shown in FIGS. 8C and 8D, U87 human glioma cells or A549 lung cancer cells were treated with 3 μM of RUTHERRIN or RUVIDAR prior to drug activation by 530 nm laser light (photodynamic therapy, PDT) or ionizing radiation. Cells were then collected and stained with fluorescent antibody to CD47 and analyzed by flow cytometry. MFI was normalized to control untreated cells and expressed as percentage of change.

[6] = 50 nM RUVIDAR or RUTHERRIN plus 1 μM Acyclovir
[7] = 50 nM RUVIDAR or RUTHERRIN plus 0.2% DMSO

Sequence of CD47 (Q08722 19-323): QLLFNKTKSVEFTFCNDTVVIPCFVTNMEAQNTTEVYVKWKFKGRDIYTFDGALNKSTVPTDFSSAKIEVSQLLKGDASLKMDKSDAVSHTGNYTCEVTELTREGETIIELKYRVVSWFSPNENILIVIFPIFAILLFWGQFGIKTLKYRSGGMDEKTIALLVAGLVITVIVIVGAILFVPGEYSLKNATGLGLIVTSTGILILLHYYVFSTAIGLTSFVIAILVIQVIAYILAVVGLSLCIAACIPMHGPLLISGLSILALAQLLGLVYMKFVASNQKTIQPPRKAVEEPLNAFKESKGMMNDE
Sequence of PD-L1 (Q9NZQ7 19-290): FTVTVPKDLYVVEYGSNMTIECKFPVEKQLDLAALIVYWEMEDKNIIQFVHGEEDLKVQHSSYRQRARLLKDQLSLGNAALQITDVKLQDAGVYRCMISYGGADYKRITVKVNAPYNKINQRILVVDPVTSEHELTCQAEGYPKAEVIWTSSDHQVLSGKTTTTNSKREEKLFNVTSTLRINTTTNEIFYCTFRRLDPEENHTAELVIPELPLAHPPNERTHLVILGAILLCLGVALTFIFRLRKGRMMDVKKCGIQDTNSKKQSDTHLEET

Nc1nc2c(ncn2COCCO)c(=O)[nH]1 [Acyclovir, reference compound]
HSV-1 yield suppression, single agent [1]: anti-viral effect to various degrees

C[S+](C)[O-] [DMSO]
HSV-1 yield suppression, single agent [1]: anti-viral effect to various degrees

Ru(4,4′-dimethyl-2,2′-bipyridine)2(2-(2′,2″:5″,2″-terthiophene)-imidazo[4,5-f][1,10] phenanthroline) [RUVIDAR]
percentage change in expression of PD-L1 (PD-L1): significantly reduced | percentage change in expression of CD47 (CD47 [2]): significantly reduced | Hoechst 33342 dye accumulation (MFI) (U87 human glioma cells): increases dye accumulation inside the cells | Hoechst 33342 dye accumulation (MFI) [3]: increases dye accumulation inside the cells | HSV-1 yield suppression, combined with Acyclovir [1, 6]: significantly potentiated | synergy score (Bliss), combined with Acyclovir [1, 6]: 0.040±0.013 | HSV-1 yield suppression, combined with DMSO [1, 7]: significantly potentiated | synergy score (Bliss), combined with DMSO [1, 7]: 0.030±0.010 | HSV-1 yield suppression, single agent [1]: anti-viral effect to various degrees | cell kill percent ([4]; RUVIDAR only, different doses): dose-dependent increase in cell kill | cell kill percent in the presence of N-acetylcysteine ([4]; RUVIDAR plus ROS scavenger N-acetylcysteine): significantly reduced | percentage change in CD47 expression, drug alone (CD47 [5]; no radiation): significantly reduced | percentage change in CD47 expression, with ionizing radiation (CD47 [5]; then ionizing radiation): more significant reduction
